These results are taken from patent EP4755885A1 (Shanghai Hansoh Biomedical Co., Ltd., priority 2023, dated 2025).

Broadly, the AUC(0-inf) is total exposure, with the tail of the curve extrapolated. Read a low AUC(0-inf) as less exposure. As usually defined, the AUC(0-t) is exposure summed from dosing to a finite time, without extrapolation to infinity. In general, Cmax refers to the maximum level reached in the sampled fluid or tissue. In general, Tmax refers to the time from dosing to the highest level. Broadly, the half-life is the time needed for the level to fall by half in the phase considered.

Series [1] in a line: Pharmacokinetic evaluation in mice, oral administration. Type of series: in vivo, Balb/c mice. The conditions noted are these: p.o. 5 mg/kg, plasma, single PK; for AUC(0-inf) / AUC(0-t) / Cmax / Tmax / MRT inf: mouse, in vivo, po; for MRT inf: read-out: MRT 0-∞. An outline of the steps: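 Male Balb/c mice (n=3) dosed p.o. at 5 mg/kg after overnight fast, vehicle 10% PEG400/10% PG/80% glycine buffer (pH 10), 0.5 mg/mL. EDTA plasma, acetonitrile precipitation, compound quantified by LC/MS/MS; PK parameters by noncompartmental-style software calculation.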

Series [2] can be described thus: Pharmacokinetic evaluation in beagles, oral administration. In kind it is in vivo. Particulars: dog, po, p.o. 2 mg/kg, plasma; for Cmax: read-out: Cmax; for MRT inf: read-out: MRT 0-∞; for Tmax: read-out: tmax. An outline of the steps:
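Male beagles (3) fasted overnight received 2 mg/kg orally as a 0.4 mg/mL solution in 10% PEG400/10% PG/80% glycine buffer, pH 9.0-9.5. Plasma (EDTA-K2) sampled predose and 0.25-24 h; acetonitrile precipitation, then LC/MS/MS quantification.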

The nature of series [3]: Long-term administration, body weight and food intake of mice fed with CDAHFD high-fat diet. Type of series: in vivo, GLP-1R humanized C57BL/6 mice. The text has this:
The purpose of this assay was to evaluate the effects of long-term administration of the compound on the body weight and food intake of GLP-1R humanized C57BL/6 mice fed with CDAHFD high-fat diet.
C57BL/6_hGLP-1R, male, 5-8 weeks, purchased from Biocytogen Pharmaceuticals (Beijing) Co., Ltd. • Choline-deficient, L-amino acid-defined, high-fat diet (CDAHFD), purchased from Shanghai Bopai Biotechnology Co., Ltd. (Research diet-A06071302) • Ultra-clean bench (CJ-2F, Suzhou Fengshi Experimental Animal Equipment Co., Ltd. • Electronic balance (BSA2202S-CW, Sartorius)
• 3.1 On the day of starting feeding the high-fat diet, the C57BL/6 mice were randomly grouped according to body weight. The first group was Blank, with 7 mice, and was fed with normal control diet. The remaining animals were the modeling group, and were fed with the high-fat diet until the end of the experiment. • 3.2 In week 4 of CDAHFD feeding, the animals in the modeling group were randomly grouped according to body weight, with 7 mice in each group. The first group was Vehicle group (Vehicle: 10%PEG400/10%PG/80% glycine buffer (100 mM glycine, 26 mM NaOH, pH 9) buffer), and was administered solvent; the remaining group was administration group. Administration regime: the corresponding compound was orally administered for a period of 21 days, once each day, the administration dose being 0.3 mg/kg, 1 mg/kg, 3 mg/kg, and 10 mg/kg, and the administration volume being 10 mL/kg. The Blank group continued to be fed with the normal diet, and was orally administered solvent once each day. • 3.3 The day of administration was defined as Day 0. • 3.4 The animals were weighed at each administration and the data were recorded. Oral administration was performed according to body weight, and the administration volume was 10 mL/kg. • 3.5 Starting from day 0 of the experiment, the food intake of the mice in each group was measured every three days. Specifically, after each weighing and administration, the diet was renewed, and the added amount and remaining amount were recorded. • 3.6 On Day 21, the end day, all mice were euthanized sequentially according to grouping order. Plasma and tissues (liver, kidney, ileum, pancreas, and brain) were taken for PK determination, and serum was taken for blood biochemistry determination (ALT, AST, TG, TC, and LDL-C).
The body weight and body weight change rate of the mice after administration were summarized and statistically analyzed. The body weight change rate was calculated according to (BWt - BW0) / BW0 × 100%, where BWt represents mouse body weight on day t of the experiment, and BW0 represents mouse body weight on day 0 of the experiment.

Where [4] appears, read: 3 mg/kg orally once each day for 21 days.

For the compound `[2H]C([2H])([2H])n1nc2c3c(c(-n4ccn(-c5c6c(nn5-c5cc(C)c(F)c(C)c5)CCN(C(=O)c5cc7cc([C@H]8CCOC(C)(C)C8)ccc7n5[C@@]5(c7noc(=O)[nH]7)C[C@@H]5C)[C@H]6C)c4=O)ccc31)OCCC2` [Example 282, 3-((1S,2S)-1-(5-((S)-2,2-dimethyltetrahydro-2H-pyran-4-yl)-2-((S)-2-(4-fluoro-3,5-dimethylphenyl)-4-methyl-3-(3-(2-(methyl-d3)-2,7,8,9-tetrahydrooxaheptano[4,3,2-cd]indazol-5-yl)-2-carbonyl-2,3-dihydro-1H-imidazol-1-yl)-4,5,6,7-tetrahydro-2H-pyrazolo[4,3-c]pyridine-5-carbonyl)-1H-indol-1-yl)-2-methylcyclopropyl)-1,2,4-oxadiazol-5(4H)-one], in series [1], the AUC(0-inf) was 18200 ng·h/mL, the AUC(0-t) is 15000 ng·h/mL, the Cmax is 1510 ng/mL and the Tmax worked out at 2 h. Also, in series [1], the MRT inf came to 13 h and the tl/2 turned out to be 9.7 h. Moreover, in series [2], the AUC(0-inf) was determined as 10800 ng·h/mL, the area under the curve AUC(0-t) at 24 h amounted to 9130 ng·h/mL, the half-life was 8.5 h and the Cmax was determined as 858 ng/mL. Also, in series [2], the MRT inf is 12.1 h and the Tmax was found to be 2 h.
For the compound `C#C[C@H]1C[C@]1(c1noc(=O)[nH]1)n1c(C(=O)N2CCc3nn(-c4cc(C)c(F)c(C)c4)c(-n4ccn(-c5ccc6c(cnn6C6CC6)c5F)c4=O)c3[C@@H]2C)cc2cc([C@H]3CCOC(C)(C)C3)ccc21` [Example 143], in series [1] (male, Balb/c), the AUC(0-inf) was 13300 ng·h/mL, the AUC(0-t) is 12200 ng·h/mL, the Cmax was 1200 ng/mL and the Tmax was determined as 2 h. Further, the MRT inf in series [1] (male, Balb/c) turned out to be 9 h. Further, in series [1], the tl/2 is recorded as 6.9 h. Further, the “Body weight change (%)-” value in series [3] (setting [4]) is -19.43%. Further, in series [2] (male, beagle), the AUC(0-inf) amounted to 17800 ng·h/mL, the half-life was 3.3 h, the Cmax stood at 2040 ng/mL and the MRT inf came to 4.8 h. In addition, the Tmax in series [2] (male, beagle) came to 2.7 h. Besides, the AUC(0-t) in series [2] (male, beagle, read-out: AUC 0-t) was found to be 13800 ng·h/mL.
Regarding `Cc1cc(-n2nc3c(c2-n2ccn(-c4ccc5c(cnn5C5CC5)c4F)c2=O)[C@H](C)N(C(=O)c2cc4cc([C@H]5CCOC(C)(C)C5)ccc4n2[C@@]2(c4noc(=O)[nH]4)C[C@@H]2COC2CC2)CC3)cc(C)c1F` [Example 67], in series [1], the AUC(0-inf) is 12100 ng·h/mL, the AUC(0-t) was found to be 11200 ng·h/mL, the peak level (Cmax) was 1430 ng/mL and the Tmax came to 4 h. In series [1], the MRT inf was 8.2 h and the tl/2 is reported as 7.6 h. In addition, the “Body weight change (%)-” value in series [3] (setting [4]) is -20.34%. For the same compound, in series [2], the AUC(0-inf) was 11800 ng·h/mL, the AUC(0-t) at 24 h was 11500 ng·h/mL, the half-life is 4.2 h and the Cmax was 2110 ng/mL. In series [2], the MRT inf was found to be 5.7 h and the Tmax stood at 1.5 h.
On to `CC#C[C@H]1C[C@]1(c1noc(=O)[nH]1)n1c(C(=O)N2CCc3nn(-c4cc(C)c(F)c(C)c4)c(-n4ccn(-c5ccc6c(cnn6C6CC6)c5F)c4=O)c3[C@@H]2C)cc2cc([C@H]3CCOC(C)(C)C3)ccc21` [Example 144, 3-((1S,2R)-1-(2-((S)-3-(3-(1-cyclopropyl-4-fluoro-1H-indazole-5-yl)-2-carbonyl-2,3-dihydro-1H-imidazole-1-yl)-2-(4-fluoro-3,5-dimethylphenyl)-4-methyl-4,5,6,7-tetrahydro-2H-pyrazolo[4,3-c]pyridin-5-carbonyl)-5-((S)-2,2-dimethyltetrahydro-2H-pyrano-4-yl)-1H-indole-1-yl)-2-(propyl-1-alkynyl-1-yl)cyclopropyl)-1,2,4-oxadiazol-5(4H)-one], for which, in series [1], the AUC(0-inf) was 35100 ng·h/mL, the AUC(0-t) was found to be 23500 ng·h/mL, the Cmax was 2240 ng/mL and the Tmax was 3 h. Also, in series [1], the MRT inf amounted to 20.8 h and the tl/2 is listed as 15.7 h. The “Body weight change (%)-” value in series [3] (0.3mg/kg orally once each day for 21 days) is reported as -10.40%. Also, in series [3] (1 mg/kg orally once each day for 21 days), the “Body weight change (%)-” value is given as -14.70%. For the same compound, in series [2], the AUC(0-inf) is 16600 ng·h/mL, the AUC(0-t) at 24 h was 15900 ng·h/mL, the half-life is 5.8 h and the Cmax is 2470 ng/mL. Besides, in series [2], the MRT inf was 6.5 h and the Tmax amounted to 1.7 h.
